Measurements taken from patent US8772499B2, “TRPV3 modulators” (AbbVie Inc., priority 2011, dated 2014).
Read-outs that look alike come from different tables or passages of the source.

Molecular target: T1, human TRPV3 (Homo sapiens, UniProt Q8NET8)
T1 construct: expressed in transfected cells
T1 sequence (Q8NET8 1-790): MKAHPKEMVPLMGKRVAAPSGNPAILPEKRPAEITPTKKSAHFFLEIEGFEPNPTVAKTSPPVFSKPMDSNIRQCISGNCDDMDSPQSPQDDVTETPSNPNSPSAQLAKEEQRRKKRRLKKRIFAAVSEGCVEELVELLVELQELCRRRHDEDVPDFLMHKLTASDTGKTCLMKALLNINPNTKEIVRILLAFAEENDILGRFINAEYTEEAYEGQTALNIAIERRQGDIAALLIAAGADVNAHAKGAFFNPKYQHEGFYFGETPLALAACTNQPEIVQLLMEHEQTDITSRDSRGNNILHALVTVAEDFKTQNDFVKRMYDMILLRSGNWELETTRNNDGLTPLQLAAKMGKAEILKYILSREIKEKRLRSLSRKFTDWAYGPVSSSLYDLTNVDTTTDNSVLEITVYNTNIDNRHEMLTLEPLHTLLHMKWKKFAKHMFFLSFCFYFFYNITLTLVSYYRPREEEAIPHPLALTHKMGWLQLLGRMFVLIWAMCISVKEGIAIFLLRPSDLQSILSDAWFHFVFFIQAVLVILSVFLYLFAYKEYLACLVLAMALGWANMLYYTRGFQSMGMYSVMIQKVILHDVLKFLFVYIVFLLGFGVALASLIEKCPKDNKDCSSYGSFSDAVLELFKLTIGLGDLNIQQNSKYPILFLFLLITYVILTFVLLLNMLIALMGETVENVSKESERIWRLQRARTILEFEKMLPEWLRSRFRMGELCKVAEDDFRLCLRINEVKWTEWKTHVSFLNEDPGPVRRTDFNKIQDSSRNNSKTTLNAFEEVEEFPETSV
Assay: In vitro antagonism of recombinant human TRPV3 activation (FLIPR Tetra calcium assay)
Type: cell-based
Details: HEK293 cells stably expressing human TRPV3, agonist 2-APB at 80 μM
Method: Test compounds were evaluated for ability to antagonize the activation of recombinant human TRPV3 using FLIPR® Tetra cellular screening. Specifically, on the day prior to the experiment recombinant HEK293 cells that stably express human TRPV3 were removed from tissue culture flasks and plated in growth medium at 20,000 cells/well into Poly-d-lysine coated black/clear 384-well Plate (Corning, 3845) using a Multidrop® dispenser (ThermoScientific, Waltham, Mass.). Prior to the start of the assay, the medium was removed by aspiration, and cells were loaded with 30 μL no-wash FLIPR® Calcium-4 dye (λEX=470-495 nm, λEM=515-575 nm; Molecular Devices, Sunnyvale, Calif.). The cells were then incubated for 90-120 minutes in the dark prior to addition of the test compound.
A double-addition protocol was used. The test compound (i.e., the TRPV3 antagonist) was added at the 10 second time point, followed by the addition of a TRPV3 agonist three minutes later. Each test compound evaluated was first dissolved in DMSO to prepare a 10 mM stock solution. A solution (5×) of the test compound was then prepared in DPBS (Dulbecco's Phosphate Buffered Saline) and 10 μl, of that solution was added to the cells at a delivery rate of 40 μL/sec. The TRPV3 agonist used to activate human TRPV3 expressed by the […] was 2-aminoethoxy-diphenyl borate (2-APB; Tocris Cookson, Ellisville, Mo.) at 80 μM. Final assay volume was 50 μl, Total length of an experimental run was 10 minutes.
Changes in fluorescence were measured over time using the FLIPR® instrument. The intensity of the fluorescence was captured and digitally transferred to an interfaced computer. The maximum response minus minimum response was calculated and expressed as the percentage of the maximum 2-APB response in the absence of antagonist. The concentration of 2-APB corresponds to its EC80.
Table 1 reports the IC50 values measured for the test compounds as human TRPV3 antagonists. […] Actual measured values are shown parenthetically after the reported range. In most cases, the values reported are average values from at least two runs (i.e., n≧2).

[1] = actual measured value shown parenthetically, in most cases average of at least two runs, read-out: IC50
[2] = reported range, read-out: IC50 (range class)

Structure (SMILES)	IC50 [1] [µM]	IC50 [2] [µM]
NC1CCCCC1C(O)C1(c2ccc(Cl)c(Cl)c2)CCC1 (stereo not shown) [Example 211, (2-aminocyclohexyl)[1-(3,4-dichlorophenyl)cyclobutyl]methanol]	6.17	–
NC1CCCCC1C(O)C1(c2ccc(OC(F)(F)F)cc2)CCC1 (stereo not shown) [Example 209, (2-aminocyclohexyl) {1-[4-(trifluoromethoxy)phenyl]cyclobutyl}methanol]	4.6	–
OC(C1CCCc2cccnc21)C1(c2ccccc2C(F)(F)F)CCC1 (stereo not drawn) [Example 196, (syn)-5,6,7,8-tetrahydroquinolin-8-yl{1-[2-(trifluoromethyl)phenyl]-cyclobutyl}methanol]	> 20	> 20
CC(c1cccc(F)c1)C1(C(O)c2ccccn2)CCC1 (stereo not shown) [Example 47, {1-[1-(3-fluorophenyl)ethyl]cyclobutyl}(pyridin-2-yl)methanol]	2.22	–
OC(c1ncccn1)C1(c2ccccc2F)CCC1 (stereo not shown) [Example 32, [1-(2-fluorophenyl)cyclobutyl](pyrimidin-2-yl)methanol]	> 20	> 20
NC1CCCC1C(O)C1(c2ccccc2OC(F)(F)F)CCC1 (stereo not shown) [Example 214, (2-aminocyclopentyl) {1-[2-(trifluoromethoxy)phenyl]cyclobutyl}methanol]	1.22	–
OC(c1ncccn1)C1(c2ccc(F)c(F)c2)CCC1 (stereo not shown) [Example 35, [1-(3,4-difluorophenyl)cyclobutyl](pyrimidin-2-yl)methanol]	10.2	–
NC1CCCCC1C(O)C1(c2cccc(OC(F)(F)F)c2)CCC1 (stereo not shown) [Example 210, (2-aminocyclohexyl) {1-[3-(trifluoromethoxy)phenyl]cyclobutyl}methanol]	3.31	–
OC(c1ncccn1)C1(c2ccc(OC(F)(F)F)cc2)CCC1 (stereo not shown) [Example 31, pyrimidin-2-yl{1-[4-(trifluoromethoxy)phenyl]cyclobutyl}methanol]	3.08	–
CC(c1ccc(C(F)(F)F)cc1)C1(C(O)c2ccccn2)CCC1 (stereo not shown) [Example 53, pyridin-2-yl(1-{1-[4-(trifluoromethyl)phenyl]ethyl}cyclobutyl)methanol]	1.75	–
OC(CC1(c2cccc(F)c2)CCC1)c1ccccn1 (stereo not shown) [Example 71, 2-[1-(3-fluorophenyl)cyclobutyl]-1-(pyridin-2-yl)ethanol]	2.13	–
OC(c1ncccn1)C1(c2cccc(F)c2)CCC1 (stereo not shown) [Example 33, [1-(3-fluorophenyl)cyclobutyl](pyrimidin-2-yl)methanol]	8.5	–
CC1(O)CC(c2ccnc(C(F)(F)F)c2)(C(O)c2ccccn2)C1 (single isomer, unassigned) [Example 302]	0.95	–
NC1CCCCC1C(O)C1(c2ccc(C(F)(F)F)cc2)CCC1 (stereo not shown) [Example 207, (2-aminocyclohexyl) {1-[4-(trifluoromethyl)phenyl]cyclobutyl}methanol]	3.99	–
OC(c1ccccn1)C1(C2=CCOCC2)CCC1 (stereo not shown) [Example 252, [1-(3,6-dihydro-2H-pyran-4-yl)cyclobutyl](pyridin-2-yl)methanol]	> 20	> 20
OC(c1ncccn1)C1(c2ccccc2OC(F)(F)F)CCC1 (stereo not shown) [Example 36, pyrimidin-2-yl{1-[2-(trifluoromethoxy)phenyl]cyclobutyl}methanol]	5.18	–
CC(c1ccccc1F)C1(C(O)c2ccccn2)CCC1 (stereo not shown) [Example 48, {1-[1-(2-fluorophenyl)ethyl]cyclobutyl}(pyridin-2-yl)methanol]	5.68	–
NC1CCCC1C(O)C1(c2ccc(Cl)c(Cl)c2)CCC1 (stereo not shown) [Example 215, (2-aminocyclopentyl)[1-(3,4-dichlorophenyl)cyclobutyl]methanol]	0.77	–
OC(c1ncccn1)C1(c2ccc(F)cc2)CCC1 (stereo not shown) [Example 34, [1-(4-fluorophenyl)cyclobutyl](pyrimidin-2-yl)methanol]	> 20	> 20
OC(CC1(c2cccc(Cl)c2)CCC1)c1ccccn1 (stereo not shown) [Example 72, 2-[1-(3-chlorophenyl)cyclobutyl]-1-(pyridin-2-yl)ethanol]	2.24	–
CC(c1ccccc1)C1(C(O)c2ccccn2)CCC1 (stereo not shown) [Example 51, [1-(1-phenylethyl)cyclobutyl](pyridin-2-yl)methanol]	8.25	–
OC(CC1(c2ccc(F)cc2)CCC1)c1ccccn1 (stereo not shown) [Example 70, 2-[1-(4-fluorophenyl)cyclobutyl]-1-(pyridin-2-yl)ethanol]	12	–

Continued, values first:

IC50 [1] [µM]	IC50 [2] [µM]	Structure (SMILES)
3.56	–	OC(c1ccccn1)C1(c2cccc(Cl)c2)COC1 (stereo not shown) [Example 86, [3-(3-chlorophenyl)oxetan-3-yl](pyridin-2-yl)methanol]
> 20	> 20	OC(c1ccccn1)C1(c2ccc(-c3ccccc3)cc2)CCC1 (stereo not shown) [Example 22, [1-(1,1′-biphenyl-4-yl)cyclobutyl](pyridin-2-yl)methanol]
2.26	–	OC(c1ccccn1)C1(c2ccc(C(F)(F)F)cc2)CCOCC1 (stereo not shown) [Example 65, pyridin-2-yl{4-[4-(trifluoromethyl)phenyl]tetrahydro-2H-pyran-4-yl}-methanol]
> 20	> 20	N#Cc1cccc(C2(C(O)c3ccccn3)CCOC2)c1 (stereo not shown) [Example 81, 3-{3-[hydroxy(pyridin-2-yl)methyl]tetrahydrofuran-3-yl}benzonitrile]
> 20	> 20	CS(=O)(=O)c1ccc(C2(C(O)c3ccccn3)CCC2)cc1 (stereo not shown) [Example 16, {1-[4-(methylsulfonyl)phenyl]cyclobutyl}(pyridin-2-yl)methanol]
2.34	–	OC(c1ccccn1)C1(c2ccc(Cl)cc2)CCOCC1 (stereo not shown) [Example 64, [4-(4-chlorophenyl)tetrahydro-2H-pyran-4-yl](pyridin-2-yl)methanol]
7.17	–	OC(c1ccccn1)C1(c2ccc(F)c(F)c2)CCOCC1 (stereo not shown) [Example 63, [4-(3,4-difluorophenyl)tetrahydro-2H-pyran-4-yl](pyridin-2-yl)methanol]
11.8	–	OC(c1ccccn1)C1(c2ccc(F)cc2)CCOCC1 (stereo not shown) [Example 62, [4-(4-fluorophenyl)tetrahydro-2H-pyran-4-yl](pyridin-2-yl)methanol]
7.55	–	OC(c1ccccn1)C1(c2ccccc2)CCOCC1 (stereo not shown) [Example 60, (4-phenyltetrahydro-2H-pyran-4-yl)(pyridin-2-yl)methanol]
> 20	> 20	N#Cc1ccc(C2(C(O)c3ccccn3)CCOC2)cc1 (stereo not shown) [Example 79, 4-{3-[hydroxy(pyridin-2-yl)methyl]tetrahydrofuran-3-yl}benzonitrile]
3.56	–	OC(c1ccccn1)C1(c2ccc(C(F)(F)F)cc2)CCOC1 (stereo not shown) [Example 78, pyridin-2-yl{3-[4-(trifluoromethyl)phenyl]tetrahydrofuran-3-yl}methanol]
7.54	–	OC(c1ccccn1)C1(c2cccc(F)c2)CCOCC1 (stereo not shown) [Example 61, [4-(3-fluorophenyl)tetrahydro-2H-pyran-4-yl](pyridin-2-yl)methanol]
> 20	> 20	COc1ccc(C2(C(O)c3ccccn3)CCOC2)cc1OC (stereo not shown) [Example 84, [3-(3,4-dimethoxyphenyl)tetrahydrofuran-3-yl](pyridin-2-yl)methanol]
4.97	–	OC(CC1(c2ccc(Cl)cc2)CCC1)c1ccccn1 (stereo not shown) [Example 69, 2-[1-(4-chlorophenyl)cyclobutyl]-1-(pyridin-2-yl)ethanol]
1.78	–	OC(c1ccccn1)C1(c2cccc(OC(F)(F)F)c2)CCOC1 (stereo not shown) [Example 80, pyridin-2-yl{3-[3-(trifluoromethoxy)phenyl]tetrahydrofuran-3-yl}methanol]
